Patent publication US20090203753A1, “7-(2-amino-1-hydroxy-ethyl)-4-hydroxybenzothiazol-2(3H)-one-derivatives as beta2 adrenoreceptor agonists” (AstraZeneca AB, priority 2005, published 2009)

How the values were obtained:
[1] = molecular target: T1, recombinant human adrenergic beta 1 receptors (Homo sapiens, UniProt P08588); test: Adrenergic β1 selectivity assay, [125I]-Iodocyanopindolol binding to membranes; conditions: inhibition of [125I]-Iodocyanopindolol binding (0.036 nM); read-out: β1 bind pIC50 (converted)
T1 construct: purchased Euroscreen
Protocol: (§1) Membranes containing recombinant human adrenergic beta 1 receptors were obtained from Euroscreen. These were diluted in Assay Buffer (50 mM HEPES, 1 mM EDTA, 120 mM NaCl, 0.1% gelatin, pH 7.4) to provide a final concentration of membranes that gave a clear window between maximum and minimum specific binding.
(§2) Assays were performed in U-bottomed 96-well polypropylene plates. 10 μL [^125I]-Iodocyanopindolol (0.036 nM final concentration) and 10 μL of test compound (10× final concentration) were added to each test well. For each assay plate 8 replicates were obtained for [^125I]-Iodocyanopindolol binding in the presence of 10 μL vehicle (10% (v/v) DMSO in Assay Buffer; defining maximum binding) or 10 μL Propranolol (10 μM final concentration; defining non-specific binding (NSB)). Membranes were then added to achieve a final volume of 100 μL. The plates were incubated for 2 hours at room temperature and then filtered onto PEI coated GF/B filter plates, pre-soaked for 1 hour in Assay Buffer, using a 96-well plate Tomtec cell harvester. Five washes with 250 μL wash buffer (50 mM HEPES, 1 mM EDTA, 120 mM NaCl, pH 7.4) were performed at 4° C. to remove unbound radioactivity. The plates were dried then sealed from underneath using Packard plate sealers and MicroScint-O (50 μL) was added to each well. The plates were sealed (TopSeal A) and filter-bound radioactivity was measured with a scintillation counter (TopCount, Packard BioScience) using a 3-minute counting protocol.
(§3) Total specific binding (B0) was determined by subtracting the mean NSB from the mean maximum binding. NSB values were also subtracted from values from all other wells.

[2] = molecular target: T2, recombinant human Dopamine Subtype D2s receptors (Homo sapiens, UniProt P14416); test: Dopamine D2 selectivity assay, [3H]-spiperone binding to membranes; conditions: read-out: D2 bind pIC50 (converted)
T2 construct: purchased Perkin Elmer
Protocol: as §1, with “human Dopamine Subtype D2s” for “human adrenergic beta 1”, “from Perkin Elmer.” for “from Euroscreen.”, “[…]” for “1 mM”
Assays were performed in U-bottomed 96-well polypropylene plates. 30 μL [^3H]-spiperone (0.16 nM final concentration) and 30 μL of test compound (10× final concentration) were added to each test well. For each assay plate 8 replicates were obtained for [^3H]-spiperone binding in the presence of 30 μL vehicle (10% (v/v) DMSO in Assay Buffer; defining maximum binding) or 30 μL Haloperidol (10 μM final concentration; defining non-specific binding (NSB)). Membranes were then added to achieve a final volume of 300 μL. The plates were incubated for 2 hours at room temperature and then filtered onto PEI coated GF/B filter plates, pre-soaked for 1 hour in Assay Buffer, using a 96-well plate Tomtec cell harvester. Five washes with 250 μL wash buffer (50 mM HEPES, 1 mM EDTA, 120 mM NaCl, pH 7.4) were performed at 4° C. to remove unbound radioactivity. The plates were dried then sealed from underneath using Packard plate sealers and MicroScint-O (50 μL) was added to each well. The plates were sealed (TopSeal A) and filter-bound radioactivity was measured with a scintillation counter (TopCount, Packard BioScience) using a 3-minute counting protocol.
as §3

[3] = molecular target: T3, β2 receptor (Homo sapiens, UniProt P07550); test: Alternative adrenergic β2 mediated cAMP production in H292 cells (60 minutes with test compound); assay type: cell-based
T3 construct: endogenous in cells; host or cells: H292 cells
Protocol: Alternative Adrenergic (β2 Mediated cAMP Production
H292 cells were grown in 225 cm2 flasks incubator at 37° C., 5% CO2 in RPMI medium containing, 10% (v/v) FBS (foetal bovine serum) and 2 mM L-glutamine.
Adherent H292 cells were removed from tissue culture flasks by treatment with Accutase™ cell detachment solution for 15 minutes. Flasks were incubated for 15 minutes in a humidified incubator at 37° C., 5% CO2. Detached cells were re-suspended in RPMI media (containing 10% (v/v) FBS and 2 mM L-glutamine) at 0.05×10^6 cells per mL. 5000 cells in 100 μL were added to each well of a tissue-culture-treated 96-well plate and the cells incubated overnight in a humidified incubator at 37° C., 5% CO2. The culture media was removed and cells were washed twice with 100 μL assay buffer and replaced with 50 μL assay buffer (HBSS solution containing 10 mM HEPES pH7.4 and 5 mM glucose). Cells were rested at room temperature for 20 minutes after which time 25 μL of rolipram (1.2 mM made up in assay buffer containing 2.4% (v/v) dimethylsulphoxide) was added. Cells were incubated with rolipram for 10 minutes after which time test compounds were added and the cells were incubated for 60 minutes at room temperature. The final rolipram concentration in the assay was 300 μM and final vehicle concentration was 1.6% (v/v) dimethylsulphoxide. The reaction was stopped by removing supernatants, washing once with 100 μL assay buffer and replacing with 50 μL lysis buffer. The cell monolayer was frozen at −80° C. for 30 minutes (or overnight).
The concentration of cAMP (cyclic adenosine monophosphate) in the cell lysate was determined using AlphaScreen™ methodology. The frozen cell plate was thawed for 20 minutes on a plate shaker then 10 μL of the cell lysate was transferred to a 96-well white plate. 40 μL of mixed AlphaScreen™ detection beads pre-incubated with biotinylated cAMP, was added to each well and the plate incubated at room temperature for 10 hours in the dark. The AlphaScreen™ signal was measured using an EnVision spectrophotometer (Perkin-Elmer Inc.) with the recommended manufacturer's settings. cAMP concentrations were determined by reference to a calibration curve determined in the same experiment using standard cAMP concentrations. Concentration response curves for agonists were constructed and data was fitted to a four parameter logistic equation to determine both the pEC50 and Intrinsic Activity. […]

[4] = molecular target: T4, recombinant human α1D receptor (Homo sapiens, UniProt P25100); test: Adrenergic α1D selectivity assay, [3H]-prazosin binding to HEK293 membranes; conditions: read-out: α1 bind pIC50 (converted)
T4 construct: expressed in transfected cells; host or cells: HEK293
T4 sequence (P25100 1-572): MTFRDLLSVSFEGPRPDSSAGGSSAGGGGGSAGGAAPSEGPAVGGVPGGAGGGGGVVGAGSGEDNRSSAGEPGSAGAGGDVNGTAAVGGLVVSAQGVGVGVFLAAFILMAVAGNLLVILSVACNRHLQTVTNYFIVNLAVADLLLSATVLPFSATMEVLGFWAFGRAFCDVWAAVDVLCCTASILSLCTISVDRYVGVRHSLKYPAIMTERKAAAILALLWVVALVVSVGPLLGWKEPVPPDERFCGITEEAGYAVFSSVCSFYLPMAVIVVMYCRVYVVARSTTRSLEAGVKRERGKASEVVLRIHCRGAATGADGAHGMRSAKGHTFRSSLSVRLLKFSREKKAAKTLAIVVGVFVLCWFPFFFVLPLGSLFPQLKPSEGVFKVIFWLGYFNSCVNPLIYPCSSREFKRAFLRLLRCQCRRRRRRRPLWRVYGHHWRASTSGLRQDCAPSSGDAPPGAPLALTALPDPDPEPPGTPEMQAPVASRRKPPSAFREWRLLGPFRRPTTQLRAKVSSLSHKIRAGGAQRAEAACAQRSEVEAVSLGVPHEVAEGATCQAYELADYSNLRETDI
Protocol: Membranes were prepared from human embryonic kidney 293 (HEK293) cells expressing recombinant human α1D receptor. These were diluted in Assay Buffer (50 mM HEPES, 1 mM EDTA, 0.1% gelatin, pH 7.4) to provide a final concentration of membranes that gave a clear window between maximum and minimum specific binding.
as §2, with “[^3H]-prazosin (0.3” for “[^125I]-Iodocyanopindolol (0.036”, “[^3H]-prazosin” for “[^125I]-Iodocyanopindolol”, “BMY7378” for “Propranolol”, “EDTA,” for “EDTA, 120 mM NaCl,”
as §3

T3 sequence (P07550 whole entry): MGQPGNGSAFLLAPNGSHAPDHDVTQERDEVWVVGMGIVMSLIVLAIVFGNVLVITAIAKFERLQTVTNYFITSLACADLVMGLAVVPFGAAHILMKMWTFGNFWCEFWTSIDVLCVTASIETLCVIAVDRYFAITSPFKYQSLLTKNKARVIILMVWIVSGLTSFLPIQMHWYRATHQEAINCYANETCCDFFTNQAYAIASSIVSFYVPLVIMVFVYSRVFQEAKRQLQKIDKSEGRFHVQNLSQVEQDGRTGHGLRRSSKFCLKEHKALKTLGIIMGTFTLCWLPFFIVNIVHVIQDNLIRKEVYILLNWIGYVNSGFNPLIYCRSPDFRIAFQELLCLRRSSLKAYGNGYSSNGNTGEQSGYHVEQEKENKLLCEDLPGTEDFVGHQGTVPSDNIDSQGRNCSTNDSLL
T1 sequence (P08588 whole entry): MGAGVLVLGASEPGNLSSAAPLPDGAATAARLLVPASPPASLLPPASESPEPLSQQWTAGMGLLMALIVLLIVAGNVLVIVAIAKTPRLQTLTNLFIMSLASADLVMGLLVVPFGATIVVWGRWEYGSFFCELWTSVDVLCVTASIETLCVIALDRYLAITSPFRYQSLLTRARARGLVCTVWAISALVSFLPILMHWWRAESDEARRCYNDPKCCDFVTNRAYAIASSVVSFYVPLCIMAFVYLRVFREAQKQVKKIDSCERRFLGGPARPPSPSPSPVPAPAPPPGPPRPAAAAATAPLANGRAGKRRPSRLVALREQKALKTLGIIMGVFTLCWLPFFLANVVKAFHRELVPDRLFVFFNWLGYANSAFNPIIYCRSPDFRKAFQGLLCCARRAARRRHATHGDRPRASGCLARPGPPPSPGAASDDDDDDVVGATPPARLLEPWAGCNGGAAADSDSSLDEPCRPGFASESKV
T2 sequence (P14416 1-414 isoform P14416-2): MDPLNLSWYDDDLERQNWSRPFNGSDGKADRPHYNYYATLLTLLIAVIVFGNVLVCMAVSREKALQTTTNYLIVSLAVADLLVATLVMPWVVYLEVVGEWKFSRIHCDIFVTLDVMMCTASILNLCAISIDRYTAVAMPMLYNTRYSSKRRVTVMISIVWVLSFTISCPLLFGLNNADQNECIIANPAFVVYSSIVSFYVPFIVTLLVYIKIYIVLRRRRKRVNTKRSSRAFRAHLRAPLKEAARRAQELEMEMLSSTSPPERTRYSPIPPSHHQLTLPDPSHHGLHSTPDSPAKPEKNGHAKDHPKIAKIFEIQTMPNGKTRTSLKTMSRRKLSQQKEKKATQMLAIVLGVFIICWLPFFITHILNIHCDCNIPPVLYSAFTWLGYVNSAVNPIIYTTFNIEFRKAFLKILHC

IC50 [1]: 631 nM | IC50 [2]: 2510 nM | EC50 ([3]; cAMP, 60 minutes incubation with compound, 300 μM rolipram, read-out: β2 pEC50 (converted)): 2 nM | β2 Int Act ([3]; fraction relative to the maximum activity determined for formoterol, 60 minutes incubation): 0.9 | IC50 [4]: 2510 nM
Structure (SMILES): CCN(CC)CCN(CCNC[C@H](O)c1ccc(O)c2[nH]c(=O)sc12)C(=O)CCOCCc1cccc2ccccc12 [Example 6, N-[2-(Diethylamino)ethyl]-N-(2-{[(2R)-2-hydroxy-2-(4-hydroxy-2-oxo-2,3-dihydro-1,3-benzothiazol-7-yl)ethyl]amino}ethyl)-3-[2-(1-naphthyl)ethoxy]propanamide]
